Like-named read-outs stand apart in the source and are kept apart here.
Columns and labels:
SIRT2 [1] = molecular target: T1, SIRT2 (Homo sapiens, UniProt Q8IXJ6); assay: biochemical; details: for inhibition at 50 µM: read-out: Inhibition (%±SD) / SIRT2 / 50 μM
T1 sequence (Q8IXJ6 2-389): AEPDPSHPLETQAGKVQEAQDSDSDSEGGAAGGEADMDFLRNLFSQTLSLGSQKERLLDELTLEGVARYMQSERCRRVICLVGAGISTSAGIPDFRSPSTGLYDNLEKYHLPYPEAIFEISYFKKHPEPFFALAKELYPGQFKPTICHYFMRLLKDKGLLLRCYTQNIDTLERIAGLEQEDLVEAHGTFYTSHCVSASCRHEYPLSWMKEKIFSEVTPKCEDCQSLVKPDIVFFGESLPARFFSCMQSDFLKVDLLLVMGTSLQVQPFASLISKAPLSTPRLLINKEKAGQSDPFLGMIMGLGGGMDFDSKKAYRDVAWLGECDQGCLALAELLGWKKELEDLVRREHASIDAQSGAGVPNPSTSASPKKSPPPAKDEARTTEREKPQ

SIRT1 [2] = molecular target: T2, SIRT1 (Homo sapiens, UniProt Q96EB6); assay: biochemical; details: for inhibition at 100 µM: read-out: Inhibition (%±SD) / SIRT1 / 100 μM
T2 sequence (Q96EB6 2-747): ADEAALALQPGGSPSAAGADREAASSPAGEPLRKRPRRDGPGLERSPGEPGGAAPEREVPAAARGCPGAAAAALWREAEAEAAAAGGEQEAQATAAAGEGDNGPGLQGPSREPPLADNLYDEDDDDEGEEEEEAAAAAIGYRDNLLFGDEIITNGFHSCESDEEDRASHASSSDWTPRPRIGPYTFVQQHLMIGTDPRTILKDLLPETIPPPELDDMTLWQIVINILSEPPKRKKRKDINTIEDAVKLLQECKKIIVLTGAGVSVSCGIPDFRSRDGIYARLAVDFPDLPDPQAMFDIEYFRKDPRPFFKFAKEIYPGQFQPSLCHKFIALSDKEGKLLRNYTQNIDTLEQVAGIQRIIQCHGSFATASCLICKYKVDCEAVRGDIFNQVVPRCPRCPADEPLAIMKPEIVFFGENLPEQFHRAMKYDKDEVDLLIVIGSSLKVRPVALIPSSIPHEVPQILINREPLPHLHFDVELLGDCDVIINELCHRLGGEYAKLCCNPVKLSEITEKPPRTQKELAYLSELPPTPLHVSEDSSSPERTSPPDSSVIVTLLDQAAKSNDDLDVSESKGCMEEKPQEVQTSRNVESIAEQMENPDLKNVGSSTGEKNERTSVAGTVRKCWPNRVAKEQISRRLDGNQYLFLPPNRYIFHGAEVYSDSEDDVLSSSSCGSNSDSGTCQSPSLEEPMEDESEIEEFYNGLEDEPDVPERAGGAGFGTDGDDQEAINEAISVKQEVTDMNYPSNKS

SIRT3 [3] = molecular target: T3, SIRT3 (Homo sapiens, UniProt Q9NTG7); assay: biochemical; details: for inhibition at 50 µM: read-out: Inhibition (%±SD) / SIRT3 / 50 μM; for inhibition at 100 µM: read-out: Inhibition (%±SD) / SIRT3 / 100 μM
T3 sequence (Q9NTG7 102-399): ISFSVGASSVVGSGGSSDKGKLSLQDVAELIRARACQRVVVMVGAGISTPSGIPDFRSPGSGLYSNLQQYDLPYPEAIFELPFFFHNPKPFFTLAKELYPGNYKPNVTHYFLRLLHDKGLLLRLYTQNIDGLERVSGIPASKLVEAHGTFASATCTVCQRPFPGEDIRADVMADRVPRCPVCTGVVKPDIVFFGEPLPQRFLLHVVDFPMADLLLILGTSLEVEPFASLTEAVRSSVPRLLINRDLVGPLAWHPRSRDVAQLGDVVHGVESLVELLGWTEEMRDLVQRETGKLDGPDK

SIRT1 [4] = molecular target: T2, SIRT1; assay: fluorescence-based deacetylase assay kit, human recombinant enzyme; format: biochemical; details: read-out: Inhibition (%±SD) / SIRT1 / 100 μM / 50 μM
SIRT2 [5] = molecular target: T4, SIRT2 (Homo sapiens, UniProt Q8IXJ6); assay: as above; format: biochemical
SIRT2 [6] = molecular target: T4, SIRT2; assay: as above; format: biochemical; details: read-out: Inhibition (%±SD) / SIRT2 / 50 μM / SIRT1 / 100 μM
SIRT3 [7] = molecular target: T3, SIRT3; assay: as above; format: biochemical; details: read-out: Inhibition (%±SD) / SIRT3 / 50 μM
[8] = read-out: Inhibition (%±SD) / SIRT2 / 100 μM

SMILES | inhibition at 100 µM (SIRT2 [1]; [8]) [%] | inhibition at 100 µM (SIRT1 [2]) [%] | inhibition at 100 µM (SIRT3 [3]) [%] | inhibition at 50 µM (SIRT2 [1]) [%] | further results
Cc1cc(C)nc(SCC(=O)Nc2ccc3c(c2)C(=O)c2cc(NC(=O)CSc4nc(C)cc(C)n4)ccc2-3)n1 [SG11] | 17.2 ± 6.1 | – | – | – | –
Cc1ccc(C(=O)Nc2ccc(S(=O)(=O)O)c3cc(S(=O)(=O)O)cc(S(=O)(=O)O)c23)cc1NC(=O)c1cccc(NC(=O)Nc2cccc(C(=O)Nc3cc(C(=O)Nc4ccc(S(=O)(=O)O)c5cc(S(=O)(=O)O)cc(S(=O)(=O)O)c45)ccc3C)c2)c1 [Suramin] | – | – | – | – | inhibition at 100 µM (SIRT2 [1]; read-out: % inhibition): 98.52 ± 0.45%; inhibition (SIRT2 [1]; [8]): 78.92 ± 0.67%
Cn1ccc(NC(=O)COc2ccc3c(c2)C(=O)c2cc(OCC(=O)Nc4ccn(C)n4)ccc2-3)n1 [SG6] | 65.6 ± 3.34 | 27.8 ± 1.31 | 36.8 ± 2.26 | 64 ± 3.84 | inhibition at 50 µM (SIRT3 [3]): 20.5 ± 7.34%
NC(=O)C1CCCc2c1[nH]c1ccc(Cl)cc21 (racemic) [EX‐527] | – | – | – | – | inhibition at 50 µM (SIRT1 [4]): 90.2%
O=C(Nc1ccc2c(c1)C(=O)c1cc(NC(=O)Nc3nccs3)ccc1-2)Nc1nccs1 [SG1, 1,1′‐(9‐Oxo‐9H‐fluorene‐2,7‐diyl)bis[3‐(thiazol‐2‐yl)urea]] | 106 ± 4.22 | 22.5 ± 3.74 | 44.7 ± 2.08 | 72.4 ± 2.88 | IC50 (SIRT2 [5]): 9.67 µM
O=C(Nc1ccc2c(c1)C(=O)c1cc(NC(=O)Nc3ccon3)ccc1-2)Nc1ccon1 [SG3, 1,1′‐(9‐Oxo‐9H‐fluorene‐2,7‐diyl)bis[3‐(isoxazol‐3‐yl)urea]] | 84.4 ± 4.07 | – | 18.6 ± 1.54 | 77.8 ± 1.7 | IC50 (SIRT2 [5]): 1.95 µM
O=C(COc1ccc2c(c1)C(=O)c1cc(OCC(=O)Nc3ccccn3)ccc1-2)Nc1ccccn1 [SG8, 2,2′‐[(9‐Oxo‐9H‐fluorene‐2,7‐diyl)bis(oxy)]bis[N‐(pyridin‐2‐yl)acetamide]] | 103 ± 2.61 | 13.2 ± 2.22 | 83.07 ± 0.27 | – | inhibition at 50 µM (SIRT2 [6]): 99.8%; inhibition at 50 µM (SIRT3 [7]): 76.4%
Cn1ccnc1SCC(=O)Nc1ccc2c(c1)C(=O)c1cc(NC(=O)CSc3nccn3C)ccc1-2 [SG10] | 18.1 ± 1.88 | – | – | – | –
O=C(COc1ccc2c(c1)C(=O)c1cc(OCC(=O)Nc3nccs3)ccc1-2)Nc1nccs1 [SG5, 2,2′‐[(9‐Oxo‐9H‐fluorene‐2,7‐diyl)bis(oxy)]bis[N‐(thiazol‐2‐yl)acetamide]] | 102 ± 8.24 | 71.2 ± 5.29 | 55.6 ± 4.42 | – | inhibition at 50 µM (SIRT2 [6]): 62.4%; inhibition at 50 µM (SIRT1 [2]; read-out: Inhibition (%±SD) / SIRT1 / 50 μM): 53.2 ± 1.62%; inhibition at 50 µM (SIRT3 [3]): 51.7 ± 1.56%
O=C(COc1ccc2c(c1)C(=O)c1cc(OCC(=O)Nc3ccon3)ccc1-2)Nc1ccon1 [SG7] | 21.5 ± 2.37 | – | – | – | –
Cn1ccc(NC(=O)Nc2ccc3c(c2)C(=O)c2cc(NC(=O)Nc4ccn(C)n4)ccc2-3)n1 [SG2] | 48.5 ± 0.3 | 11.3 ± 1.83 | 17.5 ± 0.57 | 21.6 ± 4.19 | –
CN(CC(=O)Nc1ccc2c(c1)C(=O)c1cc(NC(=O)CN(C)c3ccccc3)ccc1-2)c1ccccc1 [SG12, N,N′‐(9‐oxo‐9H‐fluorene‐2,7‐diyl)bis{2‐[methyl(phenyl)amino]acetamide}] | 85.5 ± 5.68 | 88.4 ± 4.45 | 95.84 ± 0.52 | – | inhibition at 50 µM (SIRT2 [6]): 74.7%; inhibition at 50 µM (SIRT3 [7]): 70.1%
O=C(CSc1ccccc1)Nc1ccc2c(c1)C(=O)c1cc(NC(=O)CSc3ccccc3)ccc1-2 [SG9, N,N′‐(9‐Oxo‐9H‐fluorene‐2,7‐diyl)bis[2‐(phenylthio)acetamide]] | 71.4 ± 6.51 | – | 90 ± 3.41 | 51 ± 2.28 | inhibition at 50 µM (SIRT3 [7]): 85%
O=C(Nc1ccc2c(c1)C(=O)c1cc(NC(=O)Nc3ccccn3)ccc1-2)Nc1ccccn1 [SG4, 1,1′‐(9‐oxo‐9H‐fluorene‐2,7‐diyl)bis[3‐(pyridin‐2‐yl)urea]] | 101 ± 7.54 | 24.7 ± 5.02 | 42.5 ± 4.88 | 67.6 ± 3.95 | IC50 (SIRT2 [5]): 6.65 µM

Reference: publication PMC11610652 (Archiv Der Pharmazie, 2024)
